{"source": "PubChem BioAssay AID1259407", "about": "(Chemical Carcinogenesis Research Information System (CCRIS), 2018)", "system": "CCRIS mutagenicity, Ames/micronucleus/aberration tests", "assay": "CCRIS mutagenicity studies", "note": "Active and inactive are the calls of the source. The rule behind the calls is not given here."}
{"smiles": "[N-]=[N+]=[N-]", "values": [{"measurement": "mutagenic call", "setting": "Test System: AMES SALMONELLA TYPHIMURIUM, Strain/Indicator: TA97, Metabolic Activation: NONE, Method: STANDARD PLATE", "value": "inactive; negative"}, {"measurement": "mutagenic call", "setting": "Test System: AMES SALMONELLA TYPHIMURIUM, Strain/Indicator: TA97, Metabolic Activation: RAT, LIVER, S-9, AROCLOR 1254, Method: STANDARD PLATE", "value": "inactive; negative"}, {"measurement": "mutagenic call", "setting": "Test System: AMES SALMONELLA TYPHIMURIUM, Strain/Indicator: TA98, Metabolic Activation: HAMSTER, LIVER, S-9, AROCLOR 1254 (10%), Method: PREINCUBATION", "value": "inactive; negative"}, {"measurement": "mutagenic call", "setting": "Test System: AMES SALMONELLA TYPHIMURIUM, Strain/Indicator: TA98, Metabolic Activation: NONE, Method: PREINCUBATION", "value": "inactive; negative"}, {"measurement": "mutagenic call", "setting": "Test System: AMES SALMONELLA TYPHIMURIUM, Strain/Indicator: TA98, Metabolic Activation: NONE, Method: SPIRAL ASSAY", "value": "inactive; negative"}, {"measurement": "mutagenic call", "setting": "Test System: AMES SALMONELLA TYPHIMURIUM, Strain/Indicator: TA98, Metabolic Activation: NONE, Method: STANDARD PLATE", "value": "inactive; negative"}, {"measurement": "mutagenic call", "setting": "Test System: AMES SALMONELLA TYPHIMURIUM, Strain/Indicator: TA98, Metabolic Activation: RAT, LIVER, S-9, ACRYLAMIDE, Method: STANDARD PLATE", "value": "active; positive"}, {"measurement": "mutagenic call", "setting": "Test System: AMES SALMONELLA TYPHIMURIUM, Strain/Indicator: TA98, Metabolic Activation: RAT, LIVER, S-9, AROCLOR 1254 (10%), Method: PREINCUBATION", "value": "inactive; negative"}, {"measurement": "mutagenic call", "setting": "Test System: AMES SALMONELLA TYPHIMURIUM, Strain/Indicator: TA98, Metabolic Activation: RAT, LIVER, S-9, AROCLOR 1254, Method: SPIRAL ASSAY", "value": "inactive; negative"}, {"measurement": "mutagenic call", "setting": "Test System: AMES SALMONELLA TYPHIMURIUM, Strain/Indicator: TA98, Metabolic Activation: RAT, LIVER, S-9, AROCLOR 1254, Method: STANDARD PLATE", "value": "inactive; negative"}, {"measurement": "mutagenic call", "setting": "Test System: AMES SALMONELLA TYPHIMURIUM, Strain/Indicator: TA100, Metabolic Activation: HAMSTER, LIVER, S-9, AROCLOR 1254 (10%), Method: PREINCUBATION", "value": "active; positive"}, {"measurement": "mutagenic call", "setting": "Test System: AMES SALMONELLA TYPHIMURIUM, Strain/Indicator: TA100, Metabolic Activation: NONE, Method: PREINCUBATION", "value": "active; positive"}, {"measurement": "mutagenic call", "setting": "Test System: AMES SALMONELLA TYPHIMURIUM, Strain/Indicator: TA100, Metabolic Activation: NONE, Method: SPIRAL ASSAY", "value": "active; positive"}, {"measurement": "mutagenic call", "setting": "Test System: AMES SALMONELLA TYPHIMURIUM, Strain/Indicator: TA100, Metabolic Activation: RAT, LIVER, S-9, ACRYLAMIDE, Method: STANDARD PLATE", "value": "active; positive"}, {"measurement": "mutagenic call", "setting": "Test System: AMES SALMONELLA TYPHIMURIUM, Strain/Indicator: TA100, Metabolic Activation: RAT, LIVER, S-9, AROCLOR 1254 (10%), Method: PREINCUBATION", "value": "active; positive"}, {"measurement": "mutagenic call", "setting": "Test System: AMES SALMONELLA TYPHIMURIUM, Strain/Indicator: TA100, Metabolic Activation: RAT, LIVER, S-9, AROCLOR 1254, Method: SPIRAL ASSAY", "value": "active; positive"}, {"measurement": "mutagenic call", "setting": "Test System: AMES SALMONELLA TYPHIMURIUM, Strain/Indicator: TA100, Metabolic Activation: RAT, LIVER, S-9, PCB, Method: PREINCUBATION", "value": "active; positive"}, {"measurement": "mutagenic call", "setting": "Test System: AMES SALMONELLA TYPHIMURIUM, Strain/Indicator: TA1530, Metabolic Activation: NONE, Method: STANDARD PLATE", "value": "active; positive"}, {"measurement": "mutagenic call", "setting": "Test System: AMES SALMONELLA TYPHIMURIUM, Strain/Indicator: TA1535, Metabolic Activation: HAMSTER, LIVER, S-9, AROCLOR 1254 (10%), Method: PREINCUBATION", "value": "active; positive"}, {"measurement": "mutagenic call", "setting": "Test System: AMES SALMONELLA TYPHIMURIUM, Strain/Indicator: TA1535, Metabolic Activation: NONE, Method: PREINCUBATION", "value": "active; positive"}, {"measurement": "mutagenic call", "setting": "Test System: AMES SALMONELLA TYPHIMURIUM, Strain/Indicator: TA1535, Metabolic Activation: NONE, Method: SPIRAL ASSAY", "value": "active; positive"}, {"measurement": "mutagenic call", "setting": "Test System: AMES SALMONELLA TYPHIMURIUM, Strain/Indicator: TA1535, Metabolic Activation: NONE, Method: STANDARD PLATE", "value": "active; positive"}, {"measurement": "mutagenic call", "setting": "Test System: AMES SALMONELLA TYPHIMURIUM, Strain/Indicator: TA1535, Metabolic Activation: RAT, LIVER, S-9, AROCLOR 1254 (10%), Method: PREINCUBATION", "value": "active; positive"}, {"measurement": "mutagenic call", "setting": "Test System: AMES SALMONELLA TYPHIMURIUM, Strain/Indicator: TA1535, Metabolic Activation: RAT, LIVER, S-9, AROCLOR 1254, Method: SPIRAL ASSAY", "value": "active; positive"}, {"measurement": "mutagenic call", "setting": "Test System: AMES SALMONELLA TYPHIMURIUM, Strain/Indicator: TA1535, Metabolic Activation: RAT, LIVER, S-9, AROCLOR 1254, Method: STANDARD PLATE", "value": "active; positive"}, {"measurement": "mutagenic call", "setting": "Test System: AMES SALMONELLA TYPHIMURIUM, Strain/Indicator: TA1537, Metabolic Activation: HAMSTER, LIVER, S-9, AROCLOR 1254 (10%), Method: PREINCUBATION", "value": "inactive; negative"}, {"measurement": "mutagenic call", "setting": "Test System: AMES SALMONELLA TYPHIMURIUM, Strain/Indicator: TA1537, Metabolic Activation: NONE, Method: PREINCUBATION", "value": "inactive; negative"}, {"measurement": "mutagenic call", "setting": "Test System: AMES SALMONELLA TYPHIMURIUM, Strain/Indicator: TA1537, Metabolic Activation: NONE, Method: STANDARD PLATE", "value": "inactive; negative"}, {"measurement": "mutagenic call", "setting": "Test System: AMES SALMONELLA TYPHIMURIUM, Strain/Indicator: TA1537, Metabolic Activation: RAT, LIVER, S-9, AROCLOR 1254 (10%), Method: PREINCUBATION", "value": "inactive; negative"}, {"measurement": "mutagenic call", "setting": "Test System: AMES SALMONELLA TYPHIMURIUM, Strain/Indicator: TA1537, Metabolic Activation: RAT, LIVER, S-9, AROCLOR 1254, Method: STANDARD PLATE", "value": "inactive; negative"}, {"measurement": "mutagenic call", "setting": "Test System: AMES SALMONELLA TYPHIMURIUM, Strain/Indicator: TA1538, Metabolic Activation: HAMSTER, LIVER, S-9, AROCLOR 1254 (10%), Method: PREINCUBATION", "value": "inactive; negative"}, {"measurement": "mutagenic call", "setting": "Test System: AMES SALMONELLA TYPHIMURIUM, Strain/Indicator: TA1538, Metabolic Activation: NONE, Method: PREINCUBATION", "value": "inactive; negative"}, {"measurement": "mutagenic call", "setting": "Test System: AMES SALMONELLA TYPHIMURIUM, Strain/Indicator: TA1538, Metabolic Activation: RAT, LIVER, S-9, AROCLOR 1254 (10%), Method: PREINCUBATION", "value": "inactive; negative"}, {"measurement": "mutagenic call", "setting": "Test System: Ames Salmonella typhimurium, Strain/Indicator: TA1975P, Metabolic Activation: None, Method: Preincubation", "value": "active; positive (at higher doses)"}, {"measurement": "mutagenic call", "setting": "Test System: E. COLI, Strain/Indicator: AB2500, Metabolic Activation: NONE, Method: STANDARD PLATE", "value": "inactive; negative"}, {"measurement": "mutagenic call", "setting": "Test System: E. COLI, Strain/Indicator: WP2 UVRA, Metabolic Activation: HAMSTER, LIVER, S-9, AROCLOR 1254, Method: STANDARD PLATE", "value": "inactive; negative"}, {"measurement": "mutagenic call", "setting": "Test System: E. COLI, Strain/Indicator: WP2 UVRA, Metabolic Activation: HAMSTER, LIVER, S-9, Method: STANDARD PLATE", "value": "inactive; negative"}, {"measurement": "mutagenic call", "setting": "Test System: E. COLI, Strain/Indicator: WP2 UVRA, Metabolic Activation: MOUSE, LIVER, S-9, AROCLOR 1254, Method: STANDARD PLATE", "value": "inactive; negative"}, {"measurement": "mutagenic call", "setting": "Test System: E. COLI, Strain/Indicator: WP2 UVRA, Metabolic Activation: MOUSE, LIVER, S-9, Method: STANDARD PLATE", "value": "inactive; negative"}, {"measurement": "mutagenic call", "setting": "Test System: E. COLI, Strain/Indicator: WP2 UVRA, Metabolic Activation: NONE, Method: STANDARD PLATE", "value": "inactive; negative"}, {"measurement": "mutagenic call", "setting": "Test System: E. COLI, Strain/Indicator: WP2 UVRA, Metabolic Activation: RAT, LIVER, S-9, AROCLOR 1254, Method: STANDARD PLATE", "value": "inactive; negative"}, {"measurement": "mutagenic call", "setting": "Test System: E. COLI, Strain/Indicator: WP2 UVRA, Metabolic Activation: RAT, LIVER, S-9, Method: STANDARD PLATE", "value": "inactive; negative"}, {"measurement": "mutagenic call", "setting": "Test System: MOUSE LYMPHOMA, Strain/Indicator: L5178Y (TK+/TK-), Metabolic Activation: NONE, Method: SUSPENSION/PLATE", "value": "active; positive"}]}
